This is an account of results in US11759461B2, “Small molecule inhibitors of cancer stem cells and mesenchymal cancer types” (The Scripps Research Institute, priority 2017, dated 2023).

For the assay, the system named is FOXC2-expressing HMLER cells. In words: Cell Titer Glo viability of FOXC2-HMLER cells (high throughput screen and 10-point response). The class given is cell-based. The conditions noted are these: Homo sapiens, 72 hours. An outline of the steps: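 FOXC2-HMLER cells (HMLER run in parallel) seeded at 1,000 cells/well in MEGM, attached 1 h, then given compound in DMSO (2 μM in the screen). After 72 h, viability was read by Cell Titer Glo luminescence.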
A general note: In ATP-based viability assays light output follows the ATP content of the culture.

[1] abbreviates: scored relative to parent compound 3, read-out: Activity Score, inhibition of FOXC2-expressing HMLER cells by Formula III compounds.
Setting [2] is: scored relative to parent compound 4, read-out: Activity Score, inhibition of FOXC2-expressing HMLER cells by Formula IV compounds.

Like-named read-outs stand apart in the source and are kept apart here.

On to `COc1ccc(N2CCN(C(=O)c3ccc(C)c(-n4nnc5cccnc54)c3)CC2)cc1` [Compound 3BI], for which the IC50 under setting [1] was > 20 µM. Still for that read-out and setting: the value for `Cc1ccc(C(=O)NCCCN(C)Cc2ccccc2)cc1-n1nnc2cccnc21` [Compound 3BJ] was > 20 µM; that for `Cc1ccc(C(=O)NCCCN2CCN(c3cccc(Cl)c3)CC2)cc1-n1nnc2cccnc21` [Compound 3BK] was > 20 µM. In the case of `Cc1ccc(C(=O)NCCCN2CCc3ccccc3C2)cc1-n1nnc2cccnc21` [Compound 3BL], the IC50 under setting [1] was > 20 µM. Same read-out and setting: the value for `Cc1ccc(C(=O)NCc2ccc(N(C)C)cc2)cc1-n1nnc2cccnc21` [Compound 3BM] was > 20 µM; that for `Cc1c(C(=O)NCc2ccccc2)cccc1-n1nnc2cccnc21` [Compound 3BN] was > 20 µM; that for `Cc1c(C(=O)NC2CCCCCC2)cccc1-n1nnc2cccnc21` [Compound 3BO] was > 20 µM. Same read-out and setting: the value for `Cc1c(C(=O)N2CCN(C3CCCCC3)CC2)cccc1-n1nnc2cccnc21` [Compound 3BP] was > 20 µM; that for `Cc1cccc(CNC(=O)c2cccc(-n3nnc4cccnc43)c2C)c1` [Compound 3BQ] was > 20 µM. Still for that read-out and setting: the result for `Cc1c(C(=O)N2CCC(N3CCCCC3)CC2)cccc1-n1nnc2cccnc21` [Compound 3BR] reads > 20 µM; that for `CCCCN(C)C(=O)c1cccc(-n2nnc3cccnc32)c1C` [Compound 3BS], > 20 µM.

`Cc1c(C(=O)NCC(C)c2ccccc2)cccc1-n1nnc2cccnc21` (stereo not drawn) [Compound 3BT]: the IC50 under setting [1] was > 20 µM. On the same count and under the same terms, the result for `Cc1c(C(=O)NC2CCN(Cc3ccccc3)CC2)cccc1-n1nnc2cccnc21` [Compound 3BU] reads > 20 µM; that for `Cc1c(C(=O)N2CCN(Cc3ccc4c(c3)OCO4)CC2)cccc1-n1nnc2cccnc21` [Compound 3BV], > 20 µM; that for `Cc1c(C(=O)N2CCN(c3ccccc3F)CC2)cccc1-n1nnc2cccnc21` [Compound 3BW], > 20 µM. Consider `Cc1c(C(=O)NCCCN(C)Cc2ccccc2)cccc1-n1nnc2cccnc21` [Compound 3BX], for which the IC50 under setting [1] is > 20 µM. Consider `Cc1c(C(=O)NCCN2CCCC2)cccc1-n1nnc2cccnc21` [Compound 3BY], for which, under setting [1], the IC50 was > 20 µM. On the same count and under the same terms, the value for `COc1ccc(N2CCN(CCCNC(=O)c3cccc(-n4nnc5cccnc54)c3C)CC2)cc1` [Compound 3BZ] was > 20 µM. Consider `Cc1c(C(=O)N2CCN(c3cccc(Cl)c3)CC2)cccc1-n1nnc2cccnc21` [Compound 3B], for which the IC50 under setting [1] is < 1 µM. Still for that read-out and setting: the result for `Cc1ccc(CN2CCC(CNC(=O)c3cccc(-n4nnc5cccnc54)c3C)CC2)cc1` [Compound 3CA] reads > 20 µM.

On to `Cc1c(C(=O)NCCCN2CCCC(C)C2)cccc1-n1nnc2cccnc21` (stereo not drawn) [Compound 3CB], for which the IC50 under setting [1] is > 20 µM. On the same count and under the same terms, the result for `Cc1c(C(=O)NCCCN2CCN(c3ccc(F)cc3)CC2)cccc1-n1nnc2cccnc21` [Compound 3CC] reads > 20 µM. Same read-out and setting: the result for `Cc1c(C(=O)NCCCN2CCN(Cc3ccccc3)CC2)cccc1-n1nnc2cccnc21` [Compound 3CD] reads > 20 µM. On the same count and under the same terms, the result for `Cc1c(C(=O)NCCCN2CCC(N3CCCCC3)CC2)cccc1-n1nnc2cccnc21` [Compound 3CE] reads > 20 µM. For `Cc1c(C(=O)NCCN(C)C2CCCCC2)cccc1-n1nnc2cccnc21` [Compound 3CF], under setting [1], the IC50 was > 20 µM. Still for that read-out and setting: the result for `Cc1c(C(=O)NCc2ccc(N(C)C)cc2)cccc1-n1nnc2cccnc21` [Compound 3CG] reads > 20 µM.

On to `Cc1c(C(=O)NCCCN2CCN(C3CCCCC3)CC2)cccc1-n1nnc2cccnc21` [Compound 3CH], for which the IC50 under setting [1] is > 20 µM. Regarding `Cc1ccccc1CNC(=O)c1cccc(-n2nnc3cccnc32)c1C` [Compound 3CI], the IC50 under setting [1] is > 20 µM. Same read-out and setting: the result for `Cc1c(C(=O)NCCC(C)N2CCCC2)cccc1-n1nnc2cccnc21` (stereo not drawn) [Compound 3CJ] reads > 20 µM. On the same count and under the same terms, the value for `Cc1c(C(=O)NC(C)C(=O)N2CCCCC2)cccc1-n1nnc2cccnc21` (stereo not drawn) [Compound 3CK] was > 20 µM. `O=C(c1ccc(-n2nnc3cccnc32)cc1)N1CCN(c2ccc(F)cc2)CC1` [Compound 3C]: the IC50 under setting [1] is < 1 µM. The same measure, in the same setting: the result for `Cc1ccc(C)c(N2CCN(C(=O)c3cccc(-n4nnc5cccnc54)c3)CC2)c1` [Compound 3D] reads < 1 µM. On the same count and under the same terms, the value for `Cc1ccc(Cl)cc1N1CCN(C(=O)c2cccc(-n3nnc4cccnc43)c2)CC1` [Compound 3E] was < 1 µM; that for `COc1cccc(N2CCN(C(=O)c3cccc(-n4nnc5cccnc54)c3C)CC2)c1` [Compound 3F] was < 1 µM; that for `Cc1ccc(C)c(N2CCN(C(=O)c3ccc(-n4nnc5cccnc54)cc3)CC2)c1` [Compound 3G] was 1 to 20 µM. As for `Cc1ccc(Cl)cc1N1CCN(C(=O)c2ccc(-n3nnc4cccnc43)cc2)CC1` [Compound 3H], the IC50 under setting [1] fell in the range of 1 to 20 µM. For `Cc1cccc(N2CCN(C(=O)c3ccc(-n4nnc5cccnc54)cc3)CC2C)c1` (stereo not drawn) [Compound 3I], under setting [1], the IC50 was in the range of 1 to 20 µM.

In the case of `O=C(c1ccc(-n2nnc3cccnc32)cc1)N1CCN(c2ccccc2F)CC1` [Compound 3J], the IC50 under setting [1] lay within 1 to 20 µM. Still for that read-out and setting: the result for `Cc1ccc(C)c(N2CCN(CCCNC(=O)c3ccc(-n4nnc5cccnc54)cc3)CC2)c1` [Compound 3K] reads 1 to 20 µM. For the molecule `Cc1cc(C(=O)N2CCN(c3ccccc3)CC2)ccc1-n1nnc2cccnc21` [Compound 3L], under setting [1], the IC50 fell in the range of 1 to 20 µM. On the same count and under the same terms, the result for `Cc1cc(C(=O)N2CCC(Cc3ccccc3)CC2)ccc1-n1nnc2cccnc21` [Compound 3M] reads 1 to 20 µM.

Regarding `Cc1cc(C(=O)NC2CCN(Cc3ccccc3)CC2)ccc1-n1nnc2cccnc21` [Compound 3N], under setting [1], the IC50 fell in the range of 1 to 20 µM. Take `Cc1cc(C(=O)Nc2cccc(CN3CCCC3)c2)ccc1-n1nnc2cccnc21` [Compound 3O]: the IC50 under setting [1] lay within 1 to 20 µM. The same measure, in the same setting: the result for `O=C(c1cccc(-n2nnc3cccnc32)c1)N1CCN(c2ccccc2)CC1` [Compound 3P] reads 1 to 20 µM. The same measure, in the same setting: the result for `O=C(c1cccc(-n2nnc3cccnc32)c1)N1CCN(c2cccc(Cl)c2)CC1` [Compound 3Q] reads 1 to 20 µM; that for `O=C(c1cccc(-n2nnc3cccnc32)c1)N1CCN(C2CCCCC2)CC1` [Compound 3R], 1 to 20 µM; that for `Cc1cccc(N2CCN(C(=O)c3cccc(-n4nnc5cccnc54)c3)CC2C)c1` (stereo not drawn) [Compound 3S], 1 to 20 µM. The same measure, in the same setting: the result for `Cc1ccc(CN2CCC(CNC(=O)c3cccc(-n4nnc5cccnc54)c3)CC2)cc1` [Compound 3T] reads 1 to 20 µM; that for `COc1cccc(N2CCN(C(=O)c3ccc(C)c(-n4nnc5cccnc54)c3)CC2)c1` [Compound 3U], 1 to 20 µM. For the molecule `Cc1ccc(C(=O)N2CCN(c3ccccc3)CC2)cc1-n1nnc2cccnc21` [Compound 3V], the IC50 under setting [1] was 1 to 20 µM. On to `Cc1ccc(C(=O)N2CCN(c3cccc(Cl)c3)CC2)cc1-n1nnc2cccnc21` [Compound 3W], for which, under setting [1], the IC50 is 1 to 20 µM. Still for that read-out and setting: the value for `Cc1ccc(C)c(N2CCN(C(=O)c3ccc(C)c(-n4nnc5cccnc54)c3)CC2)c1` [Compound 3X] was 1 to 20 µM; that for `Cc1ccc(Cl)cc1N1CCN(C(=O)c2ccc(C)c(-n3nnc4cccnc43)c2)CC1` [Compound 3Y] was 1 to 20 µM; that for `Cc1ccc(C(=O)N2CCC(Cc3ccccc3)CC2)cc1-n1nnc2cccnc21` [Compound 3Z] was 1 to 20 µM. In the case of `Cc1cccc(N2CCN(C(=O)c3cccc(-n4nnc5cccnc54)c3C)CC2C)c1` (stereo not drawn) [Compound 3], the IC50 under setting [1] is < 1 µM.

In the case of `Cc1ccc(C)c(N2CCN(S(=O)(=O)c3c(C)nn(-c4ccc(F)cc4)c3C)CC2)c1` [Compound 4AA], the IC50 under setting [2] was > 20 µM. Still for that read-out and setting: the value for `Cc1nn(-c2ccc(F)cc2)c(C)c1S(=O)(=O)N1CCN(c2ccccn2)CC1` [Compound 4AB] was > 20 µM. On the same count and under the same terms, the result for `Cc1nn(-c2ccc(F)cc2)c(C)c1S(=O)(=O)N1CCN(c2ccc(F)cc2)CC1` [Compound 4AC] reads > 20 µM.

For the molecule `Cc1ccc(-n2nc(C)c(S(=O)(=O)N3CCN(c4ccc(Cl)cc4)CC3)c2C)cc1` [Compound 4AD], under setting [2], the IC50 is > 20 µM. Same read-out and setting: the result for `Cc1ccc(-n2nc(C)c(S(=O)(=O)N3CCN(c4cccc(C)c4C)CC3)c2C)cc1` [Compound 4AE] reads > 20 µM; that for `Cc1ccc(-n2nc(C)c(S(=O)(=O)N3CCN(c4ccccn4)CC3)c2C)cc1` [Compound 4AF], > 20 µM. The same measure, in the same setting: the value for `Cc1c(S(=O)(=O)N2CCCN(c3ccc(=O)n(-c4ccc(F)cc4)n3)CC2)cnn1C(F)F` [Compound 4AG] was > 20 µM; that for `Cc1ccc(-n2nc(N3CCCN(S(=O)(=O)c4cnn(C(F)F)c4C)CC3)ccc2=O)cc1C` [Compound 4AH] was > 20 µM; that for `Cc1ccc(-n2nc(N3CCCN(S(=O)(=O)c4cnn(C(F)F)c4C)CC3)ccc2=O)cc1` [Compound 4AI] was > 20 µM. On to `Cc1c(S(=O)(=O)N2CCN(c3ccc(=O)n(-c4ccc(F)cc4)n3)CC2)cnn1C(F)F` [Compound 4AJ], for which, under setting [2], the IC50 was > 20 µM. Regarding `Cc1ccc(-n2nc(N3CCN(S(=O)(=O)c4cnn(C(F)F)c4C)CC3)ccc2=O)cc1C` [Compound 4AK], under setting [2], the IC50 was > 20 µM. The same measure, in the same setting: the value for `Cc1c(S(=O)(=O)N2CCN(c3ccc(=O)n(-c4ccccc4)n3)CC2)cnn1C(F)F` [Compound 4AL] was > 20 µM; that for `Cc1c(S(=O)(=O)N2CCN(c3ccc(=O)n(-c4ccc(Cl)cc4)n3)CC2)cnn1C(F)F` [Compound 4AM] was > 20 µM; that for `Cc1c(S(=O)(=O)N2CCN(C)c3ccccc32)cnn1C(F)F` [Compound 4AN] was > 20 µM. With `Cc1nn(-c2ccc(-c3ccccc3)nn2)c(C)c1S(=O)(=O)N1CCN(c2ccccc2)CC1` [Compound 4AO], the IC50 under setting [2] is > 20 µM. In the case of `Cc1nn(-c2ccc(-c3ccccc3)nn2)c(C)c1S(=O)(=O)N1CCN(c2ccccn2)CC1` [Compound 4AP], under setting [2], the IC50 was > 20 µM. On the same count and under the same terms, the value for `Cc1cccc(N2CCN(S(=O)(=O)c3c(C)nn(-c4ccc(-c5ccccc5)nn4)c3C)CC2)c1` [Compound 4AQ] was > 20 µM.
